Earlier results, collected in patent publication US12589118B2, “Method of prolonging the lifespan of patients with cerebral autosomal dominant arteriopathy with subcortical infarcts and leukoencephalopathy (CADASIL) using a cerebrolysin® preparation” (EVER NEURO PHARMA GMBH, priority 2017, dated 2026).

Experiments:
[1] = transcranial Doppler
[2] = transcranial Doppler; remark: listed apart in the source
[3] = 200-400 mg bid in 24 months

CC(C)c1c(C(=O)Nc2ccccc2)c(-c2ccccc2)c(-c2ccc(F)cc2)n1CC[C@@H](O)C[C@@H](O)CC(=O)O [Atorvastatin]
effect on cerebral blood flow [1]: no effects

N=C(N)NCCC[C@H](N)C(=O)O [L-arginine]
vasoreactivity [2]: induced-vasoreactivity

C[C@H](O)[C@H](O)[C@H]1CNc2nc(N)[nH]c(=O)c2N1 [Sapropterin]
primary end-point: mean difference in reactive hyperaemia index (improvement of peripheral vasoreactivity) [3]: not significant
